In patent US11712425B2, “Immunoregulatory role of 3-OH-kynurenamine and uses thereof” (ALBERT EINSTEIN COLLEGE OF MEDICINE, priority 2018, dated 2023):
Entries after “also recorded” stand apart in the source; their conditions may differ.

How the values were obtained:
AhR = target: T1, AhR (Mus musculus, UniProt P30561); experiment: AhR luciferase reporter (Cyp1a1 promoter) in mouse embryonic fibroblasts; format: cell-based; conditions: for AhR activation (luciferase reporter): MEFs constitutively expressing AhR, stimulated 24 hours, different concentrations
T1 construct: mouse embryonic fibroblasts (MEFs) constitutively expressing AhR; endogenous in cells; host or cells: mouse embryonic fibroblasts (MEFs)
T1 sequence (P30561 10-848): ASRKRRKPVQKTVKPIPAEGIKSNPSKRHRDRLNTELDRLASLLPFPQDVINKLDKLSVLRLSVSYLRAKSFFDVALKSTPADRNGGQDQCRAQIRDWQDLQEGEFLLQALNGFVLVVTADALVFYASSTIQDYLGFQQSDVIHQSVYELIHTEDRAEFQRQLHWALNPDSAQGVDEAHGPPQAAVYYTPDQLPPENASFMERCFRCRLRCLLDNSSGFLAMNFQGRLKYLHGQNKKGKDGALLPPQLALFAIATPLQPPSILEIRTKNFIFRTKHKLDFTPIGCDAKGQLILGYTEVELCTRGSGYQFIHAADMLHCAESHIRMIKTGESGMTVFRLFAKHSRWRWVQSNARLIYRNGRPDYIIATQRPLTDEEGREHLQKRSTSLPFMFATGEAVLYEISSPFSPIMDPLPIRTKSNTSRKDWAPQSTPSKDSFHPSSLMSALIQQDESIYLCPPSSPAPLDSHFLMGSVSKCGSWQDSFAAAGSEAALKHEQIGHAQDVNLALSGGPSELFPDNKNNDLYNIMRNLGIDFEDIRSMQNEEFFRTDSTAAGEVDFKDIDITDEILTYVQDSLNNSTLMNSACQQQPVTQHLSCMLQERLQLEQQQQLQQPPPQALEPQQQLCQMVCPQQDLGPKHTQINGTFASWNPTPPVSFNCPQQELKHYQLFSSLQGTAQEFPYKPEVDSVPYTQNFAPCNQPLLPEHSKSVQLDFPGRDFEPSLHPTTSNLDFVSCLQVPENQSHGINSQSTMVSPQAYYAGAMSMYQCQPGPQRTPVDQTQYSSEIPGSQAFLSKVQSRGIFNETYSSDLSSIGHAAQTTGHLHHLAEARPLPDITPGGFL
Method: Cells were either untreated or stimulated for 24 hours with different concentrations of 3-OH-kynurenamine and, as positive control, L-kynurenine, the known AhR agonist.

dendritic cells = experiment: Quantitative proteomics of dendritic cells treated with 3-OH-kynurenamine; format: cell-based
cDCs = experiment: Gene expression by RT-PCR in conditioned cDCs; format: cell-based, mouse; conditions: cDCs from spleens of C57BL/6 mice, 30 μM, after 2-6 hr
Method: FIG. 3A-3D. 3-OH-kynurenamine confers immunosuppressive properties on DCs. […] Analysis (B) was calculated from 3 independent experiments. C and D) mouse cDCs (C) and human PBMCs (D). After incubation with 30 (C) or 2 (D) μM kynurenines, gene expression was evaluated by RT-PCR at 6− (C) or 6 and 18 (D) h. Data were normalized to GAPDH expression and presented relative to results in untreated cells (dotted line, one-fold). Mean fold induction+SD of triplicate experiments.
(§1) Biological Role of 3-OH-Kynurenamine. Trp metabolites are known to exert several functions in immune cells. In dendritic cells, either cDCs or pDCs, incubation with L-kynurenine and/or 3-OH-anthranilic acid induces IDO1 expression and production of immunosuppressive TGF-β production. In turn, cDCs and pDCs conditioned with these Trp catabolites increase differentiation of T lymphocytes into Treg cells in vitro and, when administered in vivo, induce antigen-specific T cell tolerance.

[1] = system: antigen-specific delayed-type hypersensitivity; experiment: In vivo suppressive activity of conditioned DCs (delayed-type hypersensitivity, footpad skin test); parameters: species or system mice; conditions: cDCs conditioned 24 hr with 30 μM, pulsed with IGRP peptide; skin reactivity at 15 days
Method: FIG. 4A-4B. […] B) In vivo suppressive activity of CD8^− DCs, pulsed with the IGRP peptide (an autoantigen in autoimmune diabetes), in combination with a minority fraction (5%) of CD8^− DCs either untreated (Unt) or pretreated with 30 μM 3-OH-kynurenamine for 24 h and pulsed with the same peptide prior in vivo administration; analysis of skin reactivity of recipient mice to the eliciting peptide at 15 days is presented as change in footpad weight. ***P<0.001 (mean weight of experimental versus control footpads, i.e., injected with vehicle alone). Results are presented as fold induction±SD of triplicate experiments.
as §1

Psoriasis model = experiment: Imiquimod-induced psoriasis model; format: in vivo, mice; conditions: Imiquimod 7 days, 50 mg/kg ip for 7 days
Method: FIG. 5A-5B. […] Some of the mice were also treated with 3-OH-Kynurenamine (50 mg/kg ip; for 7 days). Controls are mice that were shaved but left untreated; Imiquimod and Imiquimod plus 3-OH-Kynurenamine refers to the specific treatments. After 7 days mice were sacrificed and skin processed for H&E staining.
as §1

[2] = system: nephrotoxic nephritis (NTN); experiment: Nephrotoxic nephritis (NTN) model; format: in vivo, 129/Sv mice; conditions: daily intraperitoneal 50 mg/kg from day +4 until day +12
Method: FIG. 6A-6F. […] Ten week old female 129/Sv mice were immunized intraperitoneally with rabbit IgG in complete Freund's adjuvant (day 0). Five days later, mice received an intravenous injection of 90 ul of pre-formed rabbit anti-mouse glomerular basement membrane antibodies (N-Ab) or PBS. Starting at day +4, mice started receiving daily intraperitoneal injections of 50 mg/kg of 3-OH-kynurenamine (n=6) or vehicle control (n=8) until sacrifice on day +12. A) Proteinuria levels determined at sacrifice by uristix. B) % of mice in each group at sacrifice that reached the predetermined cut-off value for severe proteinuria of >300 mg/dl. C) Blood Urea Nitrogen levels determined at sacrifice. D) % of mice in each group that reach pre-specified humane end points for sacrifice (>300 mg/dl on two consecutive days, a single value of >2000 mg/dl, or poor general well being. E and F) All groups of mice developed similar titers of E) antirabbit injected Ab and F) anti-GBM Ab. […] (*p<0.05, **p<0.01).
Biological Role of 3-OH-Kynurenamine. Trp metabolites are known to exert several functions in immune cells. In dendritic cells, either cDCs or pDCs, incubation with L-kynurenine and/or 3-OH-anthranilic acid induces IDO1 expression and production of immunosuppressive TGF-β production. […]

NFκB pathway = experiment: Western blot of NFκB pathway in DCs; format: cell-based; conditions: 3 independent experiments
[3] = target: T2, aromatic L-amino acid decarboxylase (AADC) (Homo sapiens, UniProt P20711); experiment: Decarboxylation by recombinant AADC; format: biochemical; conditions: enzyme plus PLP, monitored over 40 min, CO2 production
T2 construct: full-length recombinant AADC was incubaled with 3-OH-kynurenine
T2 sequence (P20711 1-480): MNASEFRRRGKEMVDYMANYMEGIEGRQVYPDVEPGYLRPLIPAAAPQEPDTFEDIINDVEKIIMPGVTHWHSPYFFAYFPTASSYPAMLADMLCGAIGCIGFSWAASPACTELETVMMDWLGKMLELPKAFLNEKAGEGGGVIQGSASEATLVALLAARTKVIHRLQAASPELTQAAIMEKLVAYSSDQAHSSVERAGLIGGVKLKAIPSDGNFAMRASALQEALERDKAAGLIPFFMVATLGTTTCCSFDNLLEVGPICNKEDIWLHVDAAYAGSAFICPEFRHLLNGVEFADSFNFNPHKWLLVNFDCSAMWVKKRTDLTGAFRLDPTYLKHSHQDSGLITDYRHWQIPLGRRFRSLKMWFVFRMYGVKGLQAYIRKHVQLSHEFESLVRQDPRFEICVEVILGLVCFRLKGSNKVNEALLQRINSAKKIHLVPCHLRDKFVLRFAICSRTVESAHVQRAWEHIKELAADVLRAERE
Method: FIG. 2. […] Tryptophan, a natural substrate for aromatic L-amino acid decarboxylase (AADC) was incubated with the enzyme and the PLP catalyst. In a separate reaction 3-OH-kynurenine was incubated under the same experimental conditions. Reactions were monitored over a 40 min. period. […] One of a triplicate experiment is shown.
As a next step, to determine whether AADC is the natural enzyme processing 3-OH-L-kynurenine into 3-OH-kynurenamine, full-length recombinant AADC was incubaled with 3-OH-kynurenine and its conversion to 3-OH-kynurenamine was followed by detecting CO2 production due to decarboxylation.

SMILES: NCCC(=O)c1cccc(O)c1N [3-OH-kynurenamine]
- AhR activation (luciferase reporter) (AhR): induced a concentration-dependent AhR activation
- AhR activation relative to L-kynurenine (AhR; MEFs, 24 hours): around 6.5 times
- NF-κB inhibitor IKB level (quantitative proteomic) (dendritic cells; cDC, 20 μM, 24 hr, IFNγ/3-OH-kynurenamine vs IFNγ control): up-regulation of the NF-κB inhibitor IKB
- MS1 quantification of immunological relevant proteins (dendritic cells; dendritic cells, media supplemented with 3-OH-Kynurenamine vs media alone): down-regulated
- Tgfbl transcripts (cDCs): significantly upregulates
- idol transcripts (cDCs): significantly upregulates
- antigen-specific delayed-type hypersensitivity induced by immunostimulatory cDCs [1]: suppressed antigen-specific delayed-type hypersensitivity
- skin inflammation / clinical and histological manifestation of psoriasis (Psoriasis model; 50 mg/kg): decreases clinical and histological manifestation of psoriasis; also recorded: decrease skin inflammation
- epidermis hyperplasia (Psoriasis model; H&E staining): statistically significant lower levels
- ortho and parakeratosis (Psoriasis model; H&E staining): statistically significant lower levels
- rete ridges formation (Psoriasis model; H&E staining): statistically significant lower levels
- nephrotoxic nephritis / kidney damage (proteinuria, overall animal survival) [2]: attenuates nephrotoxic nephritis (NTN)
- nephrotoxic nephritis / kidney damage (proteinuria, overall animal survival) ([2]; listed as 3-OH-Kynurenamine): decrease
- NFκB pathway (Western blot, densitometry) (NFκB pathway): downregulation of the NFκB pathway

SMILES: Nc1c(O)cccc1C(=O)C[C@H](N)C(=O)O [3-OH-kynurenine]
- conversion (decarboxylation) by AADC [3]: converted to 3-OH-kynurenamine; also recorded: AADC was capable of inducing 3-OH-kynurenine decarboxylation

SMILES: N[C@@H](Cc1c[nH]c2ccccc12)C(=O)O [Trp, Tryptophan]
- conversion (decarboxylation) by AADC [3]: converted to Tryptamine

SMILES: Nc1ccccc1C(=O)C[C@H](N)C(=O)O [L-kynurenine, reference compound]
- AhR activation (luciferase reporter) (AhR): activated AhR in a concentration-dependent manner
